Reference: US20240424022A1, “IN VIVO AND EX VIVO METHODS OF MODULATING T CELL EXHAUSTION/DE-EXHAUSTION” (Flagship Pioneering Innovations VI, LLC, priority 2021, published 2024)

What was measured:
[1] = system: CD8+ T cells derived from tumors; assay: Flow cytometry of tumor infiltrating T lymphocytes, MC38 syngeneic mouse model; type: in vivo; conditions: MC38 mice, day after final dose, doses per Table 5, Table 3 numbering
Source text: (§1) The day after the final dose, mice were euthanized, blood was collected by cardiac puncture and the tumors were removed. For all mice, a section of tumor was flash frozen in liquid nitrogen and stored at −80 degrees C. for future analysis; the remainder of the tumor was placed in cold RPMI (with glucose) and processed to generate a single cell suspension for flow cytometry. For a pre-selected subgroup of mice, a sample of the single cell suspension was collected for scRNAseq (3 samples from 5 treatment groups provided 15 samples for 2 runs on a 10× Chromium box). Each tumor was minced with a clean razor blade to the consistency of chopped garlic. The tumor was placed in a digestive enzyme mix (mouse tumor dissociation kit, Miltenyi) and incubated on a dissociator at 37 degrees C. for 45 min (OctoMax). Following dissociation, the slurry was filtered through a 70 μm nylon filter, centrifuged, and the pellet resuspended in Ammonium-Chloride-Potassium (ACK) lysing buffer for 3 minutes to lyse red blood cells. The ACK buffer was neutralized with 10-fold excess PBS and then the cell suspension was centrifuged to concentrate the cells. Cell suspensions from all tumors were stored on ice until analyzed by flow cytometry.
For flow cytometry, samples of each cell suspension were incubated at room temperature for one hour with an antibody panel optimized for detection of effector and exhausted T cells (Tables 6 and 7). Prior to intracellular staining, samples were permeabilized and fixed using the eBioscience™ Foxp3 Transcription Factor Staining Buffer Set (ThermoFisher) according to the manufacturer's recommendations. Samples were then incubated for one hour with the intracellular staining mix, then centrifuged and resuspended for flow cytometric analysis. Following compensation measurements using commercial beads, fluorescence minus one (fmo) measurements were performed followed by measurements of all the samples. For each sample, at least 100,000 events were recorded. All analysis for flow cytometry data was performed using FlowJo™ (BD).

[2] = system: colon adenocarcinoma cell line, MC38; assay: Efficacy study in MC38 syngeneic mice, tumor growth inhibition; type: in vivo, mouse; conditions: doses per Table 5 (Anti-PD-1 200 ug IP BIWx3, by day 9; Perturbagen 1 10 mg/kg IP QDx10), Table 3 numbering
T cells = assay: scRNAseq analysis of MC38 tumor single cell suspensions; type: in vivo; conditions: MC38 syngeneic mouse, versus PBS
Source text: as §1
As detailed above, 15 samples of tumor single cell suspension were obtained for single cell RNA sequencing (Table 8). […]

## pembrolizumab
[1]
  Expression of PD-1 in CD8+ T cells derived from tumors: reduced
  Expression of TIGIT in CD8+ T cells derived from tumors: reduced
  Number of CD8+ T cells in the tumor: increased
[2]
  Tumor growth inhibition (TGI): significant tumor growth inhibition
T cells
  Density of T cells in scRNAseq manifold: enhanced
